# Biological target: T1, cobamide (5′ phosphate) synthase (CobS) (Salmonella enterica, UniProt Q05602)
# T1 construct: CobS^WT reconstituted in proteoliposomes
# Assay: DRaCALA with […]α-RP, CobS proteoliposomes (Kd […] for DHPC-solubilized CobS); also protection in limited trypsin proteolysis
# Type: binding
# T1 sequence (Q05602 whole entry): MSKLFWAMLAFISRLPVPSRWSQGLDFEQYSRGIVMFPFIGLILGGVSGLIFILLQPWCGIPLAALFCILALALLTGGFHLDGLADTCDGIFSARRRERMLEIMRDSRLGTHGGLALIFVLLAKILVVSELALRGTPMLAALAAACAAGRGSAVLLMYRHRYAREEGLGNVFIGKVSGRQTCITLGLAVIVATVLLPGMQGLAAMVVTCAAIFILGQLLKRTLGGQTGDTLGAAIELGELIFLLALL
structure (smiles),measurement,value
"Cc1cc2ncn([C@H]3O[C@H](COP(=O)(O)O)[C@@H](O)[C@H]3O)c2cc1C [α-RP, N1-(5-phospho-alpha-D-ribosyl)-5,6-dimethylbenzimidazole]",Kd,580 nM
